# In PubChem BioAssay (NCI):
#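 1) Cells in 96-well plates. 2) Compound, 48 h, 5 concentrations. 3) Linear interpolation between surrounding doses. 4) Unreached endpoint = highest concentration. TGI: total growth inhibition.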
# Key:
# Experiment in all cases: NCI-60 cell line screen, 48 h
# [1] = system: U251 CNS
# [2] = system: NCI/ADR-RES ovarian
# [3] = system: MDA-MB-231 breast
# [4] = system: RXF 393 renal
# [5] = system: 786-0 renal
# [6] = system: RPMI-8226 leukemia
# [7] = system: SW-620 colon
# [8] = system: NCI-H23 lung
# [9] = system: K-562 leukemia
# [10] = system: MCF7 breast
# [11] = system: UACC-62 melanoma
# [12] = system: A498 renal
# [13] = system: CCRF-CEM leukemia
# [14] = system: ACHN renal
# [15] = system: SK-MEL-2 melanoma
# [16] = system: OVCAR-8 ovarian
# [17] = system: KM12 colon
# [18] = system: SR leukemia
# [19] = system: DU-145 prostate
# [20] = system: NCI-H522 lung
# [21] = system: MDA-MB-435
# [22] = system: HOP-62 NSCLC
# [23] = system: COLO 205 colon
# [24] = system: M14 melanoma
# [25] = system: HOP-92 NSCLC
# [26] = system: IGROV1 ovarian
# [27] = system: EKVX NSCLC
# [28] = system: CAKI-1 renal
# [29] = system: SNB-19 CNS
# [30] = system: OVCAR-3 ovarian
# [31] = system: TK-10 renal
# [32] = system: MALME-3M melanoma
# [33] = system: MOLT-4 leukemia
# [34] = system: SK-MEL-5 melanoma
# [35] = system: T-47D breast
# [36] = system: HCT-116 colon
# [37] = system: SF-295 CNS
# [38] = system: BT-549 breast
# [39] = system: LOX IMVI melanoma
# [40] = system: UACC-257 melanoma
# [41] = system: SK-MEL-28 melanoma
# [42] = system: OVCAR-4 ovarian
# [43] = system: OVCAR-5 ovarian
# [44] = system: HCT-15 colon
# [45] = system: SF-268 CNS
# [46] = system: NCI-H460 lung
# [47] = system: MDA-N
# [48] = system: PC-3 prostate
# [49] = system: HL-60(TB) leukemia
# [50] = system: SF-539 CNS
# [51] = system: HT29 colon
# [52] = system: UO-31 renal
# [53] = system: SN12C renal
# [54] = system: SK-OV-3 ovarian
# [55] = system: HS 578T breast
# [56] = system: A549 NSCLC
# [57] = system: NCI-H226 lung
# [58] = system: SNB-75 CNS
# [59] = system: HCC-2998 colon
smiles,measurement,setting,value
CCCCn1c(C)c(C(=O)CC)c(C(=O)NCCN2CCN(c3ccccc3Cl)CC2)c1C,TGI,[1],31.3 µM
same,TGI,[2],34.3 µM
same,TGI,[3],33.8 µM
same,TGI,[4],39.4 µM
same,TGI,[5],32.5 µM
same,TGI,[6],81.8 µM
same,TGI,[7],> 100 µM
same,TGI,[8],30.5 µM
same,TGI,[9],> 100 µM
same,TGI,[10],36.2 µM
same,TGI,[11],29.9 µM
same,TGI,[12],32.3 µM
same,TGI,[13],> 100 µM
same,TGI,[14],30.2 µM
same,TGI,[15],32.1 µM
same,TGI,[16],35.8 µM
same,TGI,[17],37.5 µM
same,TGI,[18],60.1 µM
same,TGI,[19],35.4 µM
same,TGI,[20],33.3 µM
same,TGI,[21],36.4 µM
same,TGI,[22],40.6 µM
same,TGI,[23],28.4 µM
same,TGI,[24],33.5 µM
same,TGI,[25],27.7 µM
same,TGI,[26],30.9 µM
same,TGI,[27],33.1 µM
same,TGI,[28],32.3 µM
same,TGI,[29],31.3 µM
same,TGI,[30],48.1 µM
same,TGI,[31],33.9 µM
same,TGI,[32],34.4 µM
same,TGI,[33],50.1 µM
same,TGI,[34],28.7 µM
same,TGI,[35],51.2 µM
same,TGI,[36],27.7 µM
same,TGI,[37],34.6 µM
same,TGI,[38],30.3 µM
same,TGI,[39],35.6 µM
same,TGI,[40],26.3 µM
same,TGI,[41],48.2 µM
same,TGI,[42],34.6 µM
same,TGI,[43],33.3 µM
same,TGI,[44],31.6 µM
same,TGI,[45],37.7 µM
same,TGI,[46],28.9 µM
same,TGI,[47],31 µM
same,TGI,[48],31.1 µM
same,TGI,[49],49.5 µM
same,TGI,[50],34.9 µM
same,TGI,[51],29.2 µM
same,TGI,[52],27.1 µM
same,TGI,[53],30.9 µM
same,TGI,[54],35.7 µM
same,TGI,[55],58.1 µM
same,TGI,[56],32.9 µM
same,TGI,[57],37.8 µM
O=c1oc2ccc(Cl)cc2cc1C1=CSC2=NCCN12,TGI,[1],56.2 µM
same,TGI,[2],> 100 µM
same,TGI,[3],40.9 µM
same,TGI,[4],49.5 µM
same,TGI,[5],33.4 µM
same,TGI,[6],44.1 µM
same,TGI,[7],49.1 µM
same,TGI,[8],47.4 µM
same,TGI,[9],36.8 µM
same,TGI,[58],> 100 µM
same,TGI,[10],40.1 µM
same,TGI,[11],40.4 µM
same,TGI,[13],47 µM
same,TGI,[14],> 100 µM
same,TGI,[15],55.8 µM
same,TGI,[16],38.7 µM
same,TGI,[17],41.3 µM
same,TGI,[18],34.6 µM
same,TGI,[19],36.2 µM
same,TGI,[20],34.5 µM
same,TGI,[21],57.8 µM
same,TGI,[22],34.3 µM
same,TGI,[23],41.5 µM
same,TGI,[24],> 100 µM
same,TGI,[25],48.3 µM
same,TGI,[26],34 µM
same,TGI,[27],51.6 µM
same,TGI,[28],> 100 µM
same,TGI,[59],29.4 µM
same,TGI,[29],67.7 µM
same,TGI,[30],35.5 µM
same,TGI,[31],84.4 µM
same,TGI,[32],79.7 µM
same,TGI,[33],36.4 µM
same,TGI,[34],34.2 µM
same,TGI,[35],79.7 µM
same,TGI,[36],32 µM
same,TGI,[37],59.1 µM
same,TGI,[38],37.9 µM
same,TGI,[39],35.1 µM
same,TGI,[40],> 100 µM
same,TGI,[41],80.1 µM
same,TGI,[42],65.4 µM
same,TGI,[43],> 100 µM
same,TGI,[44],41.6 µM
same,TGI,[45],33.4 µM
same,TGI,[46],> 100 µM
same,TGI,[47],47.4 µM
same,TGI,[48],49.2 µM
same,TGI,[49],61 µM
same,TGI,[50],72 µM
same,TGI,[51],36.3 µM
same,TGI,[52],51.4 µM
same,TGI,[53],32.7 µM
same,TGI,[54],> 100 µM
same,TGI,[55],93 µM
same,TGI,[56],> 100 µM
